In patent US20090197897A1, “Novel Oxadiazole Derivatives and Their Use as Positive Allosteric Modulators of Metabotropic Glutamate Receptors” (Addex Pharma SA, priority 2005, published 2009):

What was measured:
mGluR5 [1] = molecular target: T1, mGluR5 (Rattus norvegicus, UniProt P31424); settings: Liu et al 2006, Zhang et al 2005; cited from earlier work
T1 construct: positive allosteric modulators of mGluR5 receptors in native preparations; endogenous in cells; host or cells: primary cortical astrocytes from Sprague-Dawley rat embryos (day 16 to 19)

rat mGluR5 = molecular target: T2, rat mGluR5 (Rattus norvegicus, UniProt P31424); test: mGluR5 assay on HEK-expressing rat mGluR5 (fluorescent cell based Ca2+ mobilization assay); settings: for activation of rat mGluR5 receptors in HEK-rat mGluR5 cell line: without co-addition of glutamate or mGluR5 agonist; for EC50: HEK-293 cells stably expressing rat mGluR5, no co-addition of glutamate, mean of at least three independent experiments in duplicate, read-out: Ca++ Flux (mean EC50)
T2 construct: expressed in transfected cells
Procedure, shortened: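 HEK-293 cells stably expressing rat mGluR5, Fluo-4 loaded 60 min, in HEPES buffer pH 7.4 with sulfinpyrazone; compound (0.01 to 60 μM, 0.3% DMSO) added alone, no glutamate co-addition, and Ca2+ fluorescence followed 3 min by FLIPR. Duplicate points; EC50 from four-parameter logistic fit, mean of at least three experiments.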

[2] = tested on: amphetamine-induced locomotor activation in mice; test: Amphetamine model of schizophrenia (amphetamine-induced locomotor activity); format: in vivo; settings: 30 & 50 mg/kg ip, 30 min before amphetamine 3.0 mg/kg s.c., 60 min
Source text: Amphetamine-induced increases in locomotor ambulation are well known and are widely used as a model of the positive symptoms of schizophrenia. This model is based on evidence that amphetamine increases motor behaviors and can induce a psychotic state in humans (Yui et al. (2000) Ann NY Acad Sci 914:1-12). Further, it is well known that amphetamine-induced increases in locomotor activity are blocked by antipsychotics drugs that are effective in the treatment of schizophrenia (Arnt (1995) Eur J Pharmacol 283:55-62). […]
Assessment of locomotor (ambulatory) activity: The effects of compounds on amphetamine-induced locomotor activation in mice were tested. […] Locomotor activity (ambulations) was monitored by a videotracking system (VideoTrack, Viewpoint, Champagne au Mont d'Or, France) that recorded the ambulatory movements of mice. […] Mice were placed into the locomotor boxes immediately after the amphetamine injection and their locomotor activity, defined as the distance traveled in centimeters (cm), was measured for 60 minutes. […]
Statistical analyses: Statistical analyses were performed using GraphPad PRISM statistical software (GraphPad, San Diego, Calif., USA). Data were analyzed using one-way analysis of variance (ANOVA) followed by post-hoc Bonferroni-corrected multiple comparisons, where appropriate. […]

mGluR5 [3] = molecular target: T1, mGluR5; test: mGluR5 binding assay ([3H]-MPEP, rat brain membranes); settings: 3 nM [3H]-MPEP, 1 h at 4° C.
Source text: Activity of compounds of the invention was examined following a radioligand binding technique using whole rat brain and tritiated 2-methyl-6-(phenylethynyl)-pyridine ([^3H]-MPEP) as a ligand following similar methods than those described in Gasparini et al. (2002) Bioorg. Med. Chem. Lett. 12:407-409 and in Anderson et al. (2002) J. Pharmacol. Exp. Ther. 303 (3) 1044-1051.
Cortices were dissected out from brains of 200-300 g Sprague-Dawley rats (Charles River Laboratories, L'Arbresle, France). Tissues were homogenized in 10 volumes (vol/wt) of ice-cold 50 mM Hepes-NaOH (pH 7.4) using a Polytron disrupter (Kinematica AG, Luzern, Switzerland) and centrifuged for 30 min at 40,000 g. (4° C.). […] Protein concentration was determined by the Bradford method (Bio-Rad protein assay, Reinach, Switzerland) with bovine serum albumin as standard.
Membranes were thawed and resuspended in binding buffer containing 20 mM HEPES-NaOH, 3 mM MgCl2, 3 mM CaCl2, 100 mM NaCl, pH 7.4. […] Radioactivity was determined by liquid scintillation spectrometry using a 96-well plate reader (TopCount, Perkin-Elmer, Downers Grove, USA).
The inhibition curves were generated using the Prism GraphPad program (Graph Pad Software Inc, San Diego, USA). […] The mean of IC50 obtained from at least three independent experiments of selected molecules performed in duplicate were calculated.

T1 sequence (P31424 21-1203): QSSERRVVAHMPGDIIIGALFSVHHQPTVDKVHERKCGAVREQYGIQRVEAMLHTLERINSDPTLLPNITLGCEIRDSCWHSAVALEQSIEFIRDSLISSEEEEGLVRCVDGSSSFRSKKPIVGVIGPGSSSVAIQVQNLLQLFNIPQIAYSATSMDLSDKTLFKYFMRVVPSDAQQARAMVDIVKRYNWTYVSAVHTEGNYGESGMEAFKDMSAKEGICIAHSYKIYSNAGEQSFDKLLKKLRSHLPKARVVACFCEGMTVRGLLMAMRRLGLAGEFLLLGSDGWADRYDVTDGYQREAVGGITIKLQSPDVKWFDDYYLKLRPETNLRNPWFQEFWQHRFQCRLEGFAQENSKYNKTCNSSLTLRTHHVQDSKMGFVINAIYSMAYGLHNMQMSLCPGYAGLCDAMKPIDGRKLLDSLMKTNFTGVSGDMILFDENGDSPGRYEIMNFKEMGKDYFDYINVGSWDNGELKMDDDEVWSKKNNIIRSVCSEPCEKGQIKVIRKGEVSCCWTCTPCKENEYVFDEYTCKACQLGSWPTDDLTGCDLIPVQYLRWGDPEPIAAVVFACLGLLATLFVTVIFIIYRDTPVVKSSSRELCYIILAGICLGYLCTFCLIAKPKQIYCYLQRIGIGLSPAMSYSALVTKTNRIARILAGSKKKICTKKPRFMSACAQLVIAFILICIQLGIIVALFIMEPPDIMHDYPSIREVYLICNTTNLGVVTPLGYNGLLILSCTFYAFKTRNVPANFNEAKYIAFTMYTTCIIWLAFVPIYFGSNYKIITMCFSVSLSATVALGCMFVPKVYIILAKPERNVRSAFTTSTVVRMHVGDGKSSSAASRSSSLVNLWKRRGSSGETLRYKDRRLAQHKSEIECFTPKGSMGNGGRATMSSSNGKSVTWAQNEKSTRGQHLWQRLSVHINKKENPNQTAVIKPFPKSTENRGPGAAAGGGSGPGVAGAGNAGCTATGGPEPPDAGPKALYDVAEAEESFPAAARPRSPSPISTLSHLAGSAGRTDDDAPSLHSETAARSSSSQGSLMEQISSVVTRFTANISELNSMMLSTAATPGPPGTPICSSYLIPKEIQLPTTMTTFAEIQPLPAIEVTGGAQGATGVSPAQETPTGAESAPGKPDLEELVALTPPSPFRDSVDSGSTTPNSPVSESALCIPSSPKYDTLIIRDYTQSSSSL
T2 sequence (P31424 21-1171 isoform P31424-2 limits assumed): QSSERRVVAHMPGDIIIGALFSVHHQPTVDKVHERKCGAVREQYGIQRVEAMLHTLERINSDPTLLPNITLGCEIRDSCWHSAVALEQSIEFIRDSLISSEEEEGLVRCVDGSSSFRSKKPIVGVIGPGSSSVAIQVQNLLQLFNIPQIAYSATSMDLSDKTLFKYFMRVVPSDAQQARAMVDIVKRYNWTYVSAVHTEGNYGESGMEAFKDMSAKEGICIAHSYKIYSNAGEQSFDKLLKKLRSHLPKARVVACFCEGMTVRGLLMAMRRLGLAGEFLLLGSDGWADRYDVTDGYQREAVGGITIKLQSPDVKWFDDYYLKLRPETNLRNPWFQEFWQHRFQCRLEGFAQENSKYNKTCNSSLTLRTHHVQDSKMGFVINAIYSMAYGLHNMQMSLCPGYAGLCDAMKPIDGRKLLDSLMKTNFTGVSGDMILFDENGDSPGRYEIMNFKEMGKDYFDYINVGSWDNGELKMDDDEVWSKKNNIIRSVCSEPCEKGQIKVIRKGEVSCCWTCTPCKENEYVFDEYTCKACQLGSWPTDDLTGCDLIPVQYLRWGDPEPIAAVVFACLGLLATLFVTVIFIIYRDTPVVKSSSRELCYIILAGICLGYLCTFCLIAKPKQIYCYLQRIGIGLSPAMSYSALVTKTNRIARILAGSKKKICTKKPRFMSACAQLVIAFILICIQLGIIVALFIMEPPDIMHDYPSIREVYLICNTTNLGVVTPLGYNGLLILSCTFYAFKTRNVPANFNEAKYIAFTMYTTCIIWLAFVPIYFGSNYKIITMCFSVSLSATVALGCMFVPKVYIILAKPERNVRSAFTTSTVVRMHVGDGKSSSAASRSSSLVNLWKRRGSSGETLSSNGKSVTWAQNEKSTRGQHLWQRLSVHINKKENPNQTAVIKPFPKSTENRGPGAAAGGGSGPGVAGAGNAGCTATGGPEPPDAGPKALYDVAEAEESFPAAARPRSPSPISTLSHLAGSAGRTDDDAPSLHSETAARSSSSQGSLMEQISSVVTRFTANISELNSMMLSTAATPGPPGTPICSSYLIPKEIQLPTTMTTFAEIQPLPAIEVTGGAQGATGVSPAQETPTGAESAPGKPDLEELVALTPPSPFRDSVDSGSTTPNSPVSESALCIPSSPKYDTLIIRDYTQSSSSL

SMILES | activation of rat mGluR5 receptors in HEK-rat mGluR5 cell line (rat mGluR5) | EC50 (rat mGluR5) [nM] | melting point [°C] | activity in rat cortical astrocytes culture in the absence of added glutamate (mGluR5 [1]) | further results
N#Cc1cccc(C(=O)Nc2cc(-c3ccccc3)nn2-c2ccccc2)c1 [CDPPB, reference compound] | activating | – | – | inactive | –
O=C(Nc1ccc(Cl)cc1CN1C(=O)c2ccccc2C1=O)c1ccccc1O [CPPHA, reference compound] | activating | – | – | inactive | –
Fc1cccc(/C=N/N=C/c2cccc(F)c2)c1 [DFB, reference compound] | activating | – | – | inactive | –
Cc1oncc1C(=O)N1CCC[C@H](c2nc(-c3ccc(F)cc3)no2)C1 [Example 5, (S)-{3-[3-(4-Fluoro-phenyl)-[1,2,4]oxadiazol-5-yl]-piperidin-1-yl}-(5-methyl-isoxazol-4-yl)-methanone] | – | < 1000 | – | – | increase in locomotor activity induced by amphetamine ([2]; listed as compound # 5): significantly attenuated; increase in locomotor activity induced by amphetamine ([2]; listed as example 5): significantly attenuate
O=C(c1ccc(F)nc1)N1CCC[C@H](c2nc(-c3ccc(F)cc3)no2)C1 [Example 29, (S)-{3-[3-(4-Fluoro-phenyl)-[1,2,4]oxadiazol-5-yl]-piperidin-1-yl}-(6-fluoro-pyridin-3-yl)-methanone] | – | < 1000 | – | – | IC50 (mGluR5 [3]): < 30000 nM

Second part, led by results:

activation of rat mGluR5 receptors in HEK-rat mGluR5 cell line (rat mGluR5) | EC50 (rat mGluR5) [nM] | melting point [°C] | SMILES | activity in rat cortical astrocytes culture in the absence of added glutamate (mGluR5 [1]) | further results
– | 1000 to 10000 | 107 to 109 | O=C(c1ccc(F)c(F)c1)N1CCC[C@H](c2nc(-c3cscn3)no2)C1 [Example 51, (3,4-Difluoro-phenyl)-[(S)-3-(3-thiazol-4-yl-[1,2,4]oxadiazol-5-yl)-piperidin-1-yl]-methanone] | – | –
– | < 1000 | 102 to 106 | O=C(c1ccc(F)c(F)c1)N1CCC[C@H](c2nc(-c3ccncc3)no2)C1 [Example 52, (3,4-Difluoro-phenyl)-[(S)-3-(3-pyridin-4-yl-[1,2,4]oxadiazol-5-yl)-piperidin-1-yl]-methanone] | – | –
– | < 1000 | 135 to 137 | O=C(c1ccc(F)c(F)c1)N1CCC[C@H](c2nc(-c3ccccn3)no2)C1 [Example 54, (3,4-Difluoro-phenyl)-[(S)-3-(3-pyridin-2-yl-[1,2,4]oxadiazol-5-yl)-piperidin-1-yl]-methanone] | – | –
– | > 10000 | 147 to 153 | CN(C)c1ccc(-c2noc([C@H]3CCCN(C(=O)c4ccc(F)cc4)C3)n2)cc1 [Example 58, {(S)-3-[3-(4-Dimethylamino-phenyl)-[1,2,4]oxadiazol-5-yl]-piperidin-1-yl}-(4-fluoro-phenyl)-methanone] | – | –
– | < 1000 | 93 to 95 | O=C(c1ccnc(F)c1)N1CCC[C@H](c2nc(-c3ccc(F)cc3)no2)C1 [Example 77, {(S)-3-[3-(4-Fluoro-phenyl)-[1,2,4]oxadiazol-5-yl]-piperidin-1-yl}-(2-fluoro-pyridin-4-yl)-methanone] | – | –
